According to patent US20150216182A1, “COMPOSITIONS AND METHODS OF THE ATTRACTION AND REPULSION OF INSECTS” (Olfactor Laboratories, Inc., priority 2012, published 2015):
Where a name gives a salt, the structure may show the parent alone. Read-outs that look alike come from different tables or passages of the source.

Legend:
cpA neurons [1] = test: extracellular single-sensillum electrophysiology: inhibition of CO2-responsive (cpA) neuronal activity; settings: for Class: Table 10, single compounds, percent reduction in cpA activity compared to baseline; for Class (inhibitor class of the individual component): Inh = inhibitor
cpA neurons [2] = test: extracellular single-sensillum electrophysiology: activation of cpA neuronal activity; settings: for Class: Table 6, single compounds, increase over baseline cpA neuronal activity; for Comp B Class: component B tested individually
larvae = test: larvicidal activity assay; assay type: in vivo; settings: for pest or weed control at 0.25 %: read-out: % Lethality with 0.25% compound conc.; for pest or weed control at 100 ppm: read-out: % Lethality at 100 ppm
Protocol: A 6-well plate (Corning Life Sciences, Tewksbury, Mass.) is used to test a compound's larvicidal activity. […] After a 24 hour exposure, the number of dead larvae are counted and recorded.
The results are presented in Table 17 as % lethality (the number of dead larvae divided by the total number of larvae).

female mosquitoes = test: whole plant or invertebrate; settings: 2 h; for mortality at 200 µg/mL: read-out: % mortality with 0.2 mg/ml; for mortality at 2000 µg/mL: read-out: % mortality with 2 mg/ml
[3] = system: bed bugs (Cimex lectularius); test: bed bug repellency assay; assay type: in vivo; settings: for % Rep (bed bug repellency): compound or combination on filter paper harborage, ten bed bugs
Protocol: Compounds and combinations of compounds of the present invention were assayed for their ability to repel bed bugs (Cimex lectularius) using a bed bug repellency assay. This assay takes advantage of the bed bug's natural tendency to seek harborage. Two petri dishes were obtained and the inner areas of each were sanded down (leaving the perimeter smooth.) Talc was applied on the perimeter and on the inside walls of the petri dishes with a small paint brush to prevent bed bugs from escaping. A cut off top portion of a solo bathroom cup was placed upside down in the center of one petri dish. A large plastic secondary container was gathered and a paper towel was laid down inside the bottom. The petri dish was then placed inside and ten bed bugs were placed inside the cut off portion of the solo cup. Next, two pieces of filter paper were cut down the middle to yield 4 equally sized halves. 3 pieces were placed inside a glass dish ([…]) and the remaining piece was placed in a separate dish. All 4 pieces were folded down the middle to create a “tent” or “harborage” when laid such that the folded crease faced up. 100 microliters of isopropyl alcohol was pipetted into 3 pieces of filter paper (all housed in the first glass dish.) In a separate 4 ml vial, 90 microliters of isopropyl alcohol was combined and vortexed with 10 microliters of the compound or compound combination being tested. 100 microliters of this solution [comprising a total of 100 mg of compound(s)] was pipetted onto the filter paper in the separate dish. All filter papers were then allowed to dry. Once dry, experiments were conducted first with two filter paper halves comprising only the isopropyl alcohol (control experiment) and then with the remaining filter paper halves [one with only isopropyl alcohol and one comprising the test compound(s).] Filter paper halves were placed on opposing sides of experimental petri dishes and bed bugs were allowed to move freely within the dishes for 5 minutes. Movement of bed bugs beneath each filter paper tent was recorded. […] In the Table, “Rep” refers to repellency and “Cmpd” refers to compound.

[4] = 0.25% compound, 24 hour exposure, dead larvae / total larvae
[5] = 100 ppm compound, 24 hour exposure, dead larvae / total larvae
[6] = Table 13, single component alone
[7] = Table 16, single component alone

Structure (SMILES)	pest or weed control at 0.25 % (larvae; [4]) [%]	pest or weed control at 100 ppm (larvae; [5]) [%]	mortality at 200 µg/mL (female mosquitoes) [%]	mortality at 2000 µg/mL (female mosquitoes) [%]	% Rep (bed bug repellency) [3] [%]	Class (cpA neurons [1])	other results
COc1ncccc1C	–	–	–	–	–	–	effect on CO2-receptor activity (FIG. 1) (cpA neurons [1]; 1% concentration in paraffin oil): inhibitor
CC1OCCC1=O (stereo not shown) [OLI0004, 2-methyltetrahydrofuran-3-one]	0	0	0	0	37	–	Class (cpA neurons [2]): Strong Activator (strong activators yield an increase in activity that is >60 spk/sec over baseline neuronal activity)
CCc1ccc(O)cc1 [OLI0005, 4-ethylphenol]	–	–	0	100	100	–	Class (cpA neurons [2]): Strong Activator (strong activators yield an increase in activity that is >60 spk/sec over baseline neuronal activity); pest or weed control at 100 ppm (larvae; 24 h): 100%; pest or weed control at 0.25 % (larvae; 24 h): 100%
Cc1ccc(C=O)o1 [OLI0006, 5-methyl furfural]	100	0	0	0	47	–	Class (cpA neurons [2]): Strong Activator (strong activators yield an increase in activity that is >60 spk/sec over baseline neuronal activity)
CCOC(=O)CC(C)=O [OLI0022, ethylacetoacetate]	–	–	0	0	–	–	Class (cpA neurons [2]): Moderate Activator (Moderate activators yield an increase in neuronal activity that is between 40 and 60 spk/sec over baseline neuronal activity); Comp A Class (cpA neurons [2]; Table 9, component A tested individually): Mod; Comp B Class (cpA neurons [2]; Table 9): Mod; Class B (activator class of the individual component) (cpA neurons [2]; Table 15, single component alone, Mod Actv): Mod
O=CCc1ccccc1 [OLI0028, phenylacetaldehyde]	–	–	0	0	50	–	Class (cpA neurons [2]): Moderate Activator (Moderate activators yield an increase in neuronal activity that is between 40 and 60 spk/sec over baseline neuronal activity); Comp B Class (cpA neurons [2]; Table 9): Mod
CCOC(=O)CC(C)O (stereo not shown) [OLI0042, ethyl 3-hydroxybutyrate]	0	0	0	0	–	–	Class (cpA neurons [2]): Mild Activator (mild activators yield an increase in neuronal activity that is between 20 and 40 spk/sec over baseline neuronal activity)
CC/C=C\CCOC(C)=O [OLI0073, cis-3-hexenyl acetate]	95	0	0	0	–	Moderate Inhibitor (moderate inhibitors (reducing activity by 40-60%))	Class (inhibitor class of the individual component) (cpA neurons [1]; [6]): Mod
CCC(=O)OCCc1ccccc1 [OLI0076, Phenethyl propionate]	100	0	0	100	–	Moderate Inhibitor (moderate inhibitors (reducing activity by 40-60%))	Class (inhibitor class of the individual component) (cpA neurons [1]; [6]): Mod; Class (inhibitor class of the individual component) (cpA neurons [1]; [7]): Mod; inhibitor class of single compound (cpA neurons [1]; single compound): moderate inhibitor (40-60% reduction in neuronal activity as compared to baseline activity of the neuron)
CCC/C=C\CCOC(C)=O [OLI0078, (Z)-hept-3-enylacetate]	–	–	–	–	–	Mild Inhibitor (mild inhibitors (reducing activity by 20-40%))	Class (inhibitor class of the individual component) (cpA neurons [1]; [6]): Mild; Class (inhibitor class of the individual component) (cpA neurons [1]; [7]): Mild
CCCCCCCCO [OLI0080, 1-octanol]	–	–	–	–	–	Mild Inhibitor (mild inhibitors (reducing activity by 20-40%))	Class (inhibitor class of the individual component) (cpA neurons [1]; [6]): Mild; Class (inhibitor class of the individual component) (cpA neurons [1]; [7]): Mild
COC1=C(C)OC(C)C1=O (stereo not shown) [OLI0081, 2,5-dimethyl-4-methoxy-3(2H) furanone]	–	–	–	–	–	Mild Inhibitor (mild inhibitors (reducing activity by 20-40%))	–
CCCC(=O)OC(C)(C)Cc1ccccc1 [OLI0082, alpha,alpha-dimethyl phenethyl butyrate]	–	–	–	–	–	Mild Inhibitor (mild inhibitors (reducing activity by 20-40%))	Class (inhibitor class of the individual component) (cpA neurons [1]; [6]): Mild
CC/C=C\CCOC(=O)CCC [OLI0083, cis-3-hexenyl butyrate]	–	–	–	–	–	Mild Inhibitor (mild inhibitors (reducing activity by 20-40%))	Class (inhibitor class of the individual component) (cpA neurons [1]; [6]): Mild
CCOC(=O)c1cccnc1 [OLI0085, ethyl nicotinate]	–	–	–	–	–	Mild Inhibitor (mild inhibitors (reducing activity by 20-40%))	–
CCCCCCC(=O)OCC [OLI0086, Ethylheptanoate]	–	–	–	–	–	Mild Inhibitor (mild inhibitors (reducing activity by 20-40%))	–
CC12CCC(CC1)C(C)(C)O2 [OLI0087, Eucalyptol]	–	–	–	–	–	Mild Inhibitor (mild inhibitors (reducing activity by 20-40%))	–

Structure (SMILES)	pest or weed control at 0.25 % (larvae; [4]) [%]	pest or weed control at 100 ppm (larvae; [5]) [%]	mortality at 200 µg/mL (female mosquitoes) [%]	mortality at 2000 µg/mL (female mosquitoes) [%]	% Rep (bed bug repellency) [3] [%]	Class (cpA neurons [1])	other results
CC(=O)CC/C=C(\C)CCC=C(C)C [OLI0089, Geranylacetone]	–	–	–	–	–	Mild Inhibitor (mild inhibitors (reducing activity by 20-40%))	Class (inhibitor class of the individual component) (cpA neurons [1]; [6]): Mild
CCCC(=O)OC/C=C(\C)CCC=C(C)C [OLI0090, Geranylbutyrate]	–	–	–	–	–	Mild Inhibitor (mild inhibitors (reducing activity by 20-40%))	–
CCCCC1OC(=O)CC1C (stereo not shown) [OLI0094, whiskey lactone]	–	–	–	–	–	Mild Inhibitor (mild inhibitors (reducing activity by 20-40%))	–
COc1ccc(C=O)cc1OC [OLI0095, Veratraldehyde]	–	–	–	–	–	Mild Inhibitor (mild inhibitors (reducing activity by 20-40%))	Class (inhibitor class of the individual component) (cpA neurons [1]; [6]): Mild
C=CCOC(=O)C=Cc1ccccc1 [OLI0104, allyl cinnamate]	100	15	0	45	54	–	–
CCC(=O)OC/C=C/c1ccccc1 [OLI0105, trans-cinnamyl propionate]	100	0	0	85	35	–	–
O=COCC=Cc1ccccc1 [OLI0107, cinnamyl formate]	100	0	0	100	100	–	–
CCC(=O)OCC=Cc1ccccc1 [OLI0109, cinnamyl propionate]	100	0	0	100	41	–	–
CCOC(=O)C=Cc1ccccc1 [OLI0110, ethyl cinnamate]	100	0	0	100	59	–	–
COC(=O)C=Cc1ccccc1 [OLI0113, methyl cinnamate]	100	0	0	100	68	–	–
COC(=O)/C=C/c1ccccc1 [OLI0114, methyl trans-cinnamate]	100	0	0	100	70	–	–
CC1CCC(C(C)C)C(O)C1 (stereo not shown) [OLI0115, Menthol]	–	–	0	0	60	–	pest or weed control at 100 ppm (larvae; 24 h): 0%; pest or weed control at 0.25 % (larvae; 24 h): 100%
CCCCCCOC(=O)CCC [OLI0119, hexyl butyrate]	15	0	0	0	59	–	–
O=C(C=Cc1ccccc1)OCc1ccccc1 [OLI0120, benzyl cinnamate]	0	0	0	0	21	–	–
O=CCc1ccccc1 [OLI0121]	–	–	–	–	100	–	–
CC(C)=CCC/C(C)=C/CO [geraniol]	–	–	–	–	–	–	ability to repel bed bugs ([3]; 100 microliters solution on filter paper tent, 5 minutes): surprisingly strong ability to repel bed bugs
